Reference: patent publication US20220389013A1, “PYRIDOPYRIMIDINONE COMPOUNDS AND APPLICATIONS THEREOF” (BeBetter Med Inc., priority 2020, published 2022)

Experiments:
MIA-Paca2 (KRAS G12C) = assay: Tumor cell proliferation inhibition assay (CellTiter-Glo), MIA-Paca2; format: cell-based, Human; conditions: 10% fetal bovine serum
Experimental: (§1) The H358, H23 or MIA-Paca2 cells were digested, centrifuged and resuspended, and the cell density was measured with a Scepter automatic cell counter. Cells were diluted to a solution containing 44,000 cells per milliliter, then added to a 96-well culture plate at 90 μL per well. The 96-well plate was placed in a 5% CO2 incubator at 37° C., and after the cells were cultured for 24 hours, different concentrations of the compounds to be tested were added. Cells were incubated with compounds in the presence of 10% fetal bovine serum for 72 hours. The inhibition of cell growth was assessed by measuring ATP levels by using the CellTiter-Glo Luminescent Cell Viability Assay Kit (details in manufacturer's instructions). In brief, 30 μL of CellTiter-Glo reagent was added to each well and the plate was shaken for 10 minutes to induce cell lysis, then the fluorescent signal was detected and recorded with a Fluoroskan Ascent FL (Thermo). Maximum signal values were obtained from cells treated with DMSO for 72 hours. Minimum signal values were obtained with medium only (zero cell number). Inhibition rate %=(maximum signal value-compound signal value)/(maximum signal value-minimum signal value)×100%. Data were processed by using Graphpad prism5 software. IC50 values were calculated using a sigmoidal dose-response curve.

H23 (KRAS G12C) = assay: Tumor cell proliferation inhibition assay (CellTiter-Glo), H23; format: cell-based, Human; conditions: 10% fetal bovine serum
Experimental: as §1

H358 (KRAS G12C) = assay: Tumor cell proliferation inhibition assay (CellTiter-Glo), H358; format: cell-based, Human; conditions: 10% fetal bovine serum
Experimental: as §1

[1] = Pharmacokinetic (PK) experiment in rats by gavage; format: in vivo; conditions: rat, plasma, po, male SD rats, 20 mg/kg; for AUC(0-t): read-out: AUC0-24
Experimental: Male SD rats, weighing 180-250 g, were fasted overnight before the test and stomach administrated with the test compound at 20 mg/kg. 15 minutes, 30 minutes, and 1, 2, 4, 6, 8, and 24 hours after administration, blood was taken from the end of the tail of the fracture, about 0.3 mL per time point, then placed in a centrifuge tube containing K2-EDTA, and centrifuged (2000 g, 10 min, at 4° C.). Plasma was collected and stored in an ultra-low temperature freezer at −80° C. 50 μL of plasma samples were vortexed with 135 μL of acetonitrile (containing 1 μg/mL internal standard) for protein precipitation and centrifuged, and the supernatant was collected for LC-MS/MS analysis.
After the rats oral administrated with the Pyridopyrimidinone compounds provided by the present disclosure, the absorption is good, and the blood exposure is relatively high. […] Cmax refers to the maximum plasma concentration, T1/2 is the half-life, AUC0-24 refers to the area under the 0-24 hour time-concentration curve, and AUC0-inf refers to the area under the 0-Inf time-concentration curve.

KRAS-G12C/SOS1 = target: T1, KRAS-G12C/SOS1 (Homo sapiens, UniProt P01116, G12C); assay: HTRF KRAS-G12C/SOS1 binding assay; conditions: 2 hours room temperature
T1 construct: purchased Cisbio #63ADK000CB16PEG
T1 sequence (P01116 1-188 isoform P01116-2 G12C): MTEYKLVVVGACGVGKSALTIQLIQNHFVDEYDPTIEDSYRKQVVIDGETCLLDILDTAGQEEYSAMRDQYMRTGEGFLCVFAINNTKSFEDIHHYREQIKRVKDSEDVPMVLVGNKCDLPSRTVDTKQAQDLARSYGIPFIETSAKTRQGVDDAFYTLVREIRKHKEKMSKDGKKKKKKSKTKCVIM
Experimental: 2) Diluted the compound to be tested with diluent into 10× stock solution, starting from a concentration of 10000 nM, diluting in 4-fold gradient and a total of 6 concentration gradients.
After incubated at room temperature for 15 minutes, added pre-mixed 5 uL of anti-Tag1-Tb^3+ and 5 uL of anti-Tag2-XL665. Sealed the plate and incubated at room temperature for 2 hours.
Data were processed by using Graphpad prism software.

Row | Structure (SMILES) | IC50 (MIA-Paca2 (KRAS G12C); 72 hours) [nM] | IC50 (H23 (KRAS G12C); 72 hours) [nM] | IC50 (H358 (KRAS G12C); 72 hours) [nM] | melting point [°C] | IC50 (MIA-Paca2 (KRAS G12C); Homo sapiens, MIA PaCa-2, 72 h) [nM] | IC50 (H23 (KRAS G12C); Homo sapiens, 72 h) [nM] | IC50 (H358 (KRAS G12C); Homo sapiens, NCI-H358, 72 h) [nM] | AUC(0-inf) [1] [ng·h/mL] | Cmax [1] [ng/mL] | Tmax [1] [h] | half-life [1] [min] | AUC(0-t) [1] [ng·h/mL] | IC50 (KRAS-G12C/SOS1) [nM]
1 | C=CC(=O)N1C[C@H](C)N(c2nc(=O)n(-c3c(C)ccnc3C(C)C)c3nc(-c4c(F)ccc5ccoc45)c(Cl)cc23)C[C@H]1C (atropisomer, axis not shown; (P)) [Compound 90-2, 4-((2S,5R)-4-acryloyl-2,5-dimethylpiperazin-1-yl)-6-chloro-7-(6-fluorobenzofuran-7-yl)-1(P)-(2-isopropyl-4-methylpyridin-3-yl)pyrido[2,3-d]pyrimidin-2(1H)-one] | 50 to 100 | < 10 | 50 to 100 | 152 to 161 |  |  |  |  |  |  |  |  | 
2 | C=CC(=O)N1CCN(c2nc(=O)n(-c3c(C)ccnc3C(C)C)c3nc(-c4c(F)ccc5ccoc45)c(Cl)cc23)[C@@H](C)C1 [Compound 73, 4-((S)-4-acryloyl-2-methylpiperazin-1-yl)-6-chloro-7-(6-fluorobenzofuran-7-yl)-1-(2-isopropyl-4-methylpyridin-3-yl)pyrido[2,3-d]pyrimidin-2(1H)-one] |  |  |  |  | < 10 | < 10 | < 10 | 8640 | 3360 | 1 | 238 | 8630 | < 50
3 | C=CC(=O)N1CCN(c2nc(=O)n(-c3c(C)ccnc3C(C)C)c3nc(-c4c(F)c(F)cc5ccoc45)c(F)cc23)[C@@H](C)C1 (single isomer, unassigned) [Compound 74-1] |  |  |  |  | 10 to 50 | < 10 | 10 to 50 | 6220 | 3180 | 0.83 | 318 | 6200 | 50 to 100
4 | C=CC(=O)N1C[C@H](C)N(c2nc(=O)n(-c3c(C)ccnc3C(C)C)c3nc(-c4c(F)c(F)cc5ccoc45)c(F)cc23)C[C@H]1C (atropisomer, axis not shown; (P)) [Compound 91-2, 4-((2S,5R)-4-acryloyl-2,5-dimethylpiperazin-1-yl)-7-(5,6-difluorobenzofuran-7-yl)-6-fluoro-1(P)-(2-isopropyl-4-methylpyridin-3-yl)pyrido[2,3-d]pyrimidin-2(1H)-one] | > 500 | 50 to 100 | > 500 | 161 to 173 |  |  |  |  |  |  |  |  | 
5 | C=CC(=O)N1C[C@H](C)N(c2nc(=O)n(-c3c(C)ccnc3C(C)C)c3nc(-c4c(F)ccc5ccoc45)c(F)cc23)C[C@H]1C (single isomer, unassigned) [Compound 89-1] |  |  |  | 275 to 277 | 10 to 50 |  | 10 to 50 | 9020 | 3200 | 1 | 186 | 9010 | 50 to 100
6 | C=CC(=O)N1CCN(c2nc(=O)n(-c3c(C)ccnc3C(C)C)c3nc(-c4c(F)ccc5c4OCO5)c(Cl)cc23)[C@@H](C)C1 [Compound 97, 4-((S)-4-acryloyl-2-methylpiperazin-1-yl)-6-chloro-7-(5-fluorobenzo[d][1,3]dioxol-4-yl)-1-(2-isopropyl-4-methylpyridin-3-yl)pyrido[2,3-d]pyrimidin-2(1H)-one] |  |  |  |  | 10 to 50 |  | < 10 | 10400 | 4660 | 1 | 359 | 10400 | 50 to 100
7 | C=CC(=O)N1CCN(c2nc(=O)n(-c3c(C)ccnc3C(C)C)c3nc(-c4c(F)ccc5ccoc45)c(Cl)cc23)[C@@H](CC)C1 [Compound 99, 4-((S)-4-acryloyl-2-ethylpiperazin-1-yl)-6-chloro-7-(6-fluorobenzofuran-7-yl)-1-(2-isopropyl-4-methylpyridin-3-yl)pyrido[2,3-d]pyrimidin-2(1H)-one] |  |  |  |  | 100 to 500 | < 10 | 50 to 100 |  |  |  |  |  | 
8 | C=CC(=O)N1CCN(c2nc(=O)n(-c3c(C)ccnc3C(C)C)c3nc(-c4c(F)ccc5ccoc45)c(F)cc23)[C@@H](C)C1 (single isomer, unassigned) [Compound 70-2] | > 500 | 50 to 100 | 100 to 500 |  |  |  |  |  |  |  |  |  | > 1000
9 | C=CC(=O)N1CCN(c2nc(=O)n(-c3c(C)ccnc3C(C)C)c3nc(-c4c(F)ccc5ccoc45)c(Cl)cc23)[C@@H](C)C1 (single isomer, unassigned) [Compound 73-2] | 100 to 500 | < 10 | 10 to 50 |  |  |  |  |  |  |  |  |  | 100 to 500
10 | C=CC(=O)N1CCN(c2nc(=O)n(-c3c(C)ccnc3C(C)C)c3nc(-c4c(F)ccc5c4OCC5)c(F)cc23)[C@@H](C)C1 [Compound 79, 4-((S)-4-acryloyl-2-methylpiperazin-1-yl)-6-fluoro-7-(6-fluoro-2,3-dihydrobenzofuran-7-yl)-1-(2-isopropyl-4-methylpyridin-3-yl)pyrido[2,3-d]pyrimidin-2(1H)-one] |  |  |  |  | 10 to 50 |  | 10 to 50 |  |  |  |  |  | 100 to 500
11 | C=CC(=O)N1C[C@H](C)N(c2nc(=O)n(-c3c(C)ccnc3C(C)C)c3nc(-c4c(F)c(F)cc5ccoc45)c(Cl)cc23)C[C@H]1C (atropisomer, axis not shown; (P)) [Compound 104-2, 4-((2S,5R)-4-acryloyl-2,5-dimethylpiperazin-1-yl)-6-chloro-7-(5,6-difluorobenzofuran-7-yl)-1(P)-(2-isopropyl-4-methylpyridin-3-yl)pyrido[2,3-d]pyrimidin-2(1H)-one] | 100 to 500 | 10 to 50 | 100 to 500 | 153 to 162 |  |  |  |  |  |  |  |  | 
12 | C=CC(=O)N1CCN(c2nc(=O)n(-c3c(C(C)C)ccnc3C(C)C)c3nc(-c4c(F)ccc5ccoc45)c(Cl)cc23)[C@@H](C)C1 [Compound 122, 4-((S)-4-acryloyl-2-methylpiperazin-1-yl)-6-chloro-1-(2,4-diisopropylpyridin-3-yl)-7-(6-fluorobenzofuran-7-yl)pyrido[2,3-d]pyrimidin-2(1H)-one] |  |  |  | 162 to 173 | < 10 |  | < 10 | 6000 | 1630 | 1.67 | 218 | 5990 | < 50
13 | C=CC(=O)N1C[C@H](C)N(c2nc(=O)n(-c3c(C)ccnc3C(C)C)c3nc(-c4c(F)c(F)cc5ccoc45)c(Cl)cc23)C[C@H]1C [Compound 104, 4-((2S,5R)-4-acryloyl-2,5-dimethylpiperazin-1-yl)-6-chloro-7-(5,6-difluorobenzofuran-7-yl)-1-(2-isopropyl-4-methylpyridin-3-yl)pyrido[2,3-d]pyrimidin-2(1H)-one] | 10 to 50 |  | < 10 |  |  | < 10 |  | 13000 | 2110 | 2 | 148 | 13000 | 
14 | C=CC(=O)N1CCN(c2nc(=O)n(-c3c(C)ccnc3C(C)C)c3nc(-c4c(F)c(F)cc5ccoc45)c(F)cc23)[C@@H](C)C1 (atropisomer, axis not shown; (P)) [Compound 74-2, 4-((S)-4-acryloyl-2-methylpiperazin-1-yl)-7-(5,6-difluorobenzofuran-7-yl)-6-fluoro-1(P)-(2-isopropyl-4-methylpyridin-3-yl)pyrido[2,3-d]pyrimidin-2(1H)-one] | > 500 | 100 to 500 | > 500 |  |  |  |  |  |  |  |  |  | 
15 | C=CC(=O)N1CCN(c2nc(=O)n(-c3c(C)ccnc3C(C)C)c3nc(-c4c(F)ccc5ccoc45)c(F)cc23)[C@@H](C)C1 [Compound 70, 4-((S)-4-acryloyl-2-methylpiperazin-1-yl)-6-fluoro-7-(6-fluorobenzofuran-7-yl)-1-(2-isopropyl-4-methylpyridin-3-yl)pyrido[2,3-d]pyrimidin-2(1H)-one] |  |  |  |  | 10 to 50 |  | 10 to 50 |  |  |  |  |  | 100 to 500
16 | C=CC(=O)N1CCN(c2nc(=O)n(-c3c(C)ccnc3C(C)C)c3nc(-c4c(F)c(F)cc5ccoc45)c(Cl)cc23)[C@@H](C)C1 [Compound 103, 4-((S)-4-acryloyl-2-methylpiperazin-1-yl)-6-chloro-7-(5,6-difluorobenzofuran-7-yl)-1-(2-isopropyl-4-methylpyridin-3-yl)pyrido[2,3-d]pyrimidin-2(1H)-one] | 10 to 50 |  | < 10 |  |  | < 10 |  | 9420 | 3310 | 1 | 226 | 9400 | 
